Values joined by “and” are separate entries in the source; they are usually repeats but may differ in a detail not shown here. Identical values can stand only once.
Legend:
Substance-P receptor = Substance-P receptor (Homo sapiens, UniProt P25103); assay: Ability to displace [125I]-labeled substance P from human cloned Tachykinin receptor 1 in CHO cells.; format: cell-based
Gerbillinae [1] = assay: In vivo percent inhibition of gerbil foot tapping 2 hours after iv administration of 3 mg/kg; format: functional
Gerbillinae [2] = assay: In vivo percent inhibition of gerbil foot tapping 0 hours after iv administration of 3 mg/kg; format: functional
[3] = Plasma clearance rate determined in rat; format: ADME, organism-based
[4] = Steady state volume of distribution determined in rat; format: ADME, organism-based; details: in vivo, read-out: Vss
[5] = Plasma half life determined in rat; format: ADME, organism-based; details: read-out: Time (converted)
[6] = Maximum plasma concentration determined in rat; format: ADME, organism-based
[7] = Mean residence time determined in rat; format: ADME, organism-based; details: in vivo, read-out: Time
[8] = Oral bioavailability in rat; format: ADME, organism-based; details: in vivo
Gerbillinae [9] = assay: In vivo percent inhibition of gerbil foot tapping 0 hours after iv administration at 3 mg/kg; format: functional
[10] = Time for maximum plasma concentration determined in rat; format: ADME, organism-based
[11] = Half life of compound determined in rat; format: ADME, organism-based; details: in vivo, read-out: Time (converted)
Gerbillinae [12] = assay: Inhibitory dose against gerbil foot tapping 2 hours after iv administration; format: functional
Gerbillinae [13] = assay: In vivo percent inhibition of gerbil foot tapping 0 hours after iv administration of 1 mg/kg; format: functional
Gerbillinae [14] = assay: In vivo percent inhibition of gerbil foot tapping 2 hours after iv administration of 1 mg/kg; format: functional

Substance-P receptor, sequence (P25103 whole entry): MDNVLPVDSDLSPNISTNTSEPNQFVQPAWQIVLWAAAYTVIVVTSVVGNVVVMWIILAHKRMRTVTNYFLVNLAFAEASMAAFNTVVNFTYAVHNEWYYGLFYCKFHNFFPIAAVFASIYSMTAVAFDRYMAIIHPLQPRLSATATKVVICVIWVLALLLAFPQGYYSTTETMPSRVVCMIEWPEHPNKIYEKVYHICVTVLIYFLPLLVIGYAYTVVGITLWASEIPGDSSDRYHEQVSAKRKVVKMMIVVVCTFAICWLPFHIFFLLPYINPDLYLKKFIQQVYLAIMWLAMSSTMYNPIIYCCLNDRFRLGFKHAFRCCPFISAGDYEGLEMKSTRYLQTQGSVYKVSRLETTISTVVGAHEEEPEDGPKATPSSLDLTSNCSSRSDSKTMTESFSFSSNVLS

**Q.** For Cn1c(-c2ccc(Cl)cc2)c(CCC(=O)N2CCN(Cc3ccccc3)CC2)c2cc(Cl)ccc21, which IC50 (Substance-P receptor) is on record?
**A.** Its IC50 is 0.3 nM.

**Q.** And the inhibition in vivo at 3 mg/kg (Gerbillinae [1])?
**A.** The inhibition in vivo at 3 mg/kg was 17%.

**Q.** What about the inhibition in vivo at 3 mg/kg (Gerbillinae [2]) of the same compound?
**A.** Its inhibition in vivo at 3 mg/kg is 100%.

**Q.** Which IC50 (Substance-P receptor) does the source give for CC(C)N1CCN(C(=O)CCc2c(-c3ccc(Cl)cc3)n(C)c3ccc(Cl)cc23)CC1 here?
**A.** The IC50 was 13 nM.

**Q.** Which IC50 (Substance-P receptor) does the source give for Cn1c(-c2ccc(Cl)cc2)c(CCC(=O)N2CCC(Nc3ccccc3)CC2)c2cc(Cl)ccc21 here?
**A.** Its IC50 is 1.3 nM.

**Q.** Which IC50 (Substance-P receptor) does the source give for Cn1c(-c2ccc(Cl)cc2)c(CCC(=O)N2CCC(Cc3ccccc3)CC2)c2cc(Cl)ccc21 here?
**A.** The IC50 was 2.2 nM.

**Q.** With Cn1c(-c2ccc(Cl)cc2)c(CCC(=O)N2CCN(CC(=O)Nc3ccccc3)CC2)c2cc(Cl)ccc21 as the compound, how does the IC50 (Substance-P receptor) read?
**A.** The IC50 was 30 nM.

**Q.** For COc1ccccc1N1CCN(C(=O)CCc2c(-c3ccc(Br)cc3)[nH]c3ccc(C)cc23)CC1, which clearance [3] is on record?
**A.** The clearance was 179 mL/min/kg.

**Q.** And the Vd [4]?
**A.** Its Vd is 9.5 L/kg.

**Q.** What about the half-life [5] of the same compound?
**A.** The half-life was 1.4 h.

**Q.** What about the Cmax [6] of the same compound?
**A.** The Cmax was 2 ng/mL.

**Q.** And the MRT [7]?
**A.** The MRT was 0.9 h.

**Q.** What about the bioavailability [8] of the same compound?
**A.** Its bioavailability is 3%.

**Q.** What about the inhibition in vivo at 3 mg/kg (Gerbillinae [9]) of the same compound?
**A.** Its inhibition in vivo at 3 mg/kg is 46%.

**Q.** What about the Tmax [10] of the same compound?
**A.** Its Tmax is 1.1 h.

**Q.** For Cn1c(-c2ccc(Cl)cc2)c(CCC(=O)N2CCC(CO)(c3ccccc3)CC2)c2cc(Cl)ccc21, which IC50 (Substance-P receptor) is on record?
**A.** Its IC50 is 55 nM.

**Q.** For Cn1c(-c2ccc(Cl)cc2)c(CCC(=O)N2CCC(F)(Cc3ccccc3)CC2)c2cc(Cl)ccc21, which IC50 (Substance-P receptor) is on record?
**A.** The IC50 was 0.55 nM.

**Q.** For Cn1c(-c2ccc(Cl)cc2)c(CCC(=O)N2CCC(O)(Cc3ccccc3)CC2)c2cc(Cl)ccc21, which IC50 (Substance-P receptor) is on record?
**A.** The IC50 was 0.21 nM.

**Q.** And the half-life [11]?
**A.** The half-life was 3.1 h.

**Q.** What about the ID50 (Gerbillinae [12]) of the same compound?
**A.** The ID50 was 0.3 mg/kg and 0.9 mg/kg.

**Q.** And the Vd [4]?
**A.** Its Vd is 3.5 L/kg.

**Q.** What about the Cmax [6] of the same compound?
**A.** The Cmax was 4 ng/mL.

**Q.** And the MRT [7]?
**A.** The MRT was 1.8 h.

**Q.** And the bioavailability [8]?
**A.** The bioavailability was 3%.

**Q.** What about the Tmax [10] of the same compound?
**A.** Its Tmax is 1.2 h.

**Q.** Which IC50 (Substance-P receptor) does the source give for CN(C(=O)CN1CCN(C(=O)CCc2c(-c3ccc(Cl)cc3)n(C)c3ccc(Cl)cc23)CC1)c1ccccc1 here?
**A.** The IC50 was 0.13 nM.

**Q.** What about the inhibition in vivo at 1 mg/kg (Gerbillinae [13]) of the same compound?
**A.** The inhibition in vivo at 1 mg/kg was 87%.

**Q.** And the inhibition in vivo at 1 mg/kg (Gerbillinae [14])?
**A.** The inhibition in vivo at 1 mg/kg was 6%.

**Q.** With Cn1c(-c2ccc(Cl)cc2)c(CCC(=O)N2CCN(CC(C)(C)C)CC2)c2cc(Cl)ccc21 as the compound, how does the IC50 (Substance-P receptor) read?
**A.** The IC50 was 2 nM.

**Q.** For CC(C)CCN1CCN(C(=O)CCc2c(-c3ccc(Cl)cc3)n(C)c3ccc(Cl)cc23)CC1, which IC50 (Substance-P receptor) is on record?
**A.** Its IC50 is 0.34 nM.

**Q.** With Cn1c(-c2ccc(Cl)cc2)c(CCC(=O)N2CCN(C3CCCCC3)CC2)c2cc(Cl)ccc21 as the compound, how does the IC50 (Substance-P receptor) read?
**A.** The IC50 was 0.35 nM.

**Q.** What about the inhibition in vivo at 3 mg/kg (Gerbillinae [1]) of the same compound?
**A.** The inhibition in vivo at 3 mg/kg was 7%.

**Q.** And the inhibition in vivo at 3 mg/kg (Gerbillinae [2])?
**A.** Its inhibition in vivo at 3 mg/kg is 100%.

**Q.** For Cn1c(-c2ccc(Cl)cc2)c(CCC(=O)N2CCN(Cc3ccccc3)C(=O)C2)c2cc(Cl)ccc21, which IC50 (Substance-P receptor) is on record?
**A.** The IC50 was 0.39 nM.

**Q.** Which IC50 (Substance-P receptor) does the source give for Cn1c(-c2ccc(Cl)cc2)c(CCC(=O)N2CCN(CC3CCCCC3)CC2)c2cc(Cl)ccc21 here?
**A.** The IC50 was 2.9 nM.

**Q.** With CC(=O)C1(c2ccccc2)CCN(C(=O)CCc2c(-c3ccc(Cl)cc3)n(C)c3ccc(Cl)cc23)CC1 as the compound, how does the IC50 (Substance-P receptor) read?
**A.** Its IC50 is 0.53 nM.

**Q.** With Cn1c(-c2ccc(Cl)cc2)c(CCC(=O)N2CCN(CC3CC3)CC2)c2cc(Cl)ccc21 as the compound, how does the IC50 (Substance-P receptor) read?
**A.** The IC50 was 0.78 nM.

**Q.** With CCC(=O)N(c1ccccc1)C1CCN(C(=O)CCc2c(-c3ccc(Cl)cc3)n(C)c3ccc(Cl)cc23)CC1 as the compound, how does the IC50 (Substance-P receptor) read?
**A.** The IC50 was 0.16 nM.

**Q.** What about the Inhibition (Gerbillinae [1]) of the same compound?
**A.** The Inhibition was 50%.

**Q.** What about the Inhibition (Gerbillinae [2]) of the same compound?
**A.** Its Inhibition is 100%.

Source: ChEMBL document CHEMBL1133856, “2-Aryl indole NK(1) antagonists: optimisation of the amide substituent” (Bioorg Med Chem Lett, 2001)
